Laboratory results reported in patent publication US20040157911A1, “Storage-stable and bio-stable formulations of ace inhibitors, and methods for preparation thereof” (priority 1999, published 2004).
Where a name gives a salt, the structure may show the parent alone.

Assay: Dispersion time of enalapril maleate in alcohol/water liquids
Format: physicochemical
Settings: for Dispersion Time: 50 g in 200 mL, 200 rpm
Description: Enalapril maleate (50 grams) was added to 200 mL of liquid. The liquid ranged from 100% alcohol/0% water to 0% alcohol/100% water (see Table 1). The solutions were stirred at 200 rpm at room temperature using a Lightning Mixer (General Signal Controls, Rochester, N.Y.) with the mixing blade 1 cm from the bottom of the beaker. Enalapril maleate was considered “dispersed” when all of the drug powder was wetted and had become immersed in the liquid.

Time to full dispersion in alcohol (20 mg/ud in SD3A denatured alcohol (50 mg/ud), stirring at 500 rpm (preparation of Formula I)): less than 10 seconds
Dispersion Time (25%/75% alcohol/water, full value 1 minute, 15 seconds (seconds in next row)): 60 s
Dispersion Time (50%/50% alcohol/water, room temperature): 45 s
Dispersion Time (75%/25% alcohol/water, room temperature): 30 s
Dispersion Time (85%/15% alcohol/water, room temperature): 28 s
Dispersion Time (100%/0% alcohol/water, room temperature): 27 s
Structure (SMILES): CCOC(=O)[C@H](CCc1ccccc1)N[C@@H](C)C(=O)N1CCC[C@H]1C(=O)O [enalapril maleate]
